Data from the Biogen ADME set (Fang et al. 2023).
Converted amounts (≈) assume the structure as drawn.

Conditions: for aqueous solubility: pH 6.8

Row | Structure (SMILES) | MDR1-MDCK efflux ratio | intrinsic clearance, human liver microsomes | intrinsic clearance, rat liver microsomes | aqueous solubility
1 | COc1ccc(-c2cccc(C3CCCN(C(=O)C4CCCC4)C3)n2)cc1 (stereo unspecified) | 0.717 | 175 mL/min/kg | 1980 mL/min/kg | 2.45 µg/mL (≈ 6.72 µM)
2 | Nc1nccc2ccc(-c3cccc(F)c3)cc12 | – | 209 mL/min/kg | 790 mL/min/kg | 3 µg/mL (≈ 12.6 µM)
3 | Cc1cnn(CC2CC2)c1NC(=O)/C=C/c1ccccc1 | 2.67 | 13.8 mL/min/kg | 318 mL/min/kg | 32.7 µg/mL (≈ 116 µM)
4 | COc1ccc(C(=O)C2CCN(CC(=O)N(Cc3nc4c(c(=O)[nH]3)COCC4)CC3CC3)CC2)cc1 | 53.8 | 10.9 mL/min/kg | 45.5 mL/min/kg | 94.5 µg/mL (≈ 191 µM)
5 | O=C(CCCCCCC(=O)Nc1ccccc1)NO | – | ≤ 4.74 mL/min/kg | 27.4 mL/min/kg | –
6 | CC(C)c1noc(CNC(=O)N2C[C@H]3C[C@@H](C2)c2cccc(=O)n2C3)n1 | 3.14 | 7.35 mL/min/kg | 73.7 mL/min/kg | –
7 | CCN(C(=O)N1CCC(OC2CCOCC2)CC1)C(C)C | 0.763 | 21.6 mL/min/kg | 155 mL/min/kg | 56.1 µg/mL (≈ 188 µM)
8 | CNC(=O)CN1CCCN(C(=O)c2c(C)nn(-c3ccccc3)c2Cl)CC1 | 82.1 | ≤ 4.74 mL/min/kg | 87.7 mL/min/kg | 49.9 µg/mL (≈ 128 µM)
9 | Cc1noc(CC2CCN(Cc3cccnc3)CC2)n1 | – | 5.69 mL/min/kg | 48.9 mL/min/kg | –
10 | COc1ccccc1CNc1cn[nH]c(=O)c1Cl | 1.3 | ≤ 4.74 mL/min/kg | 104 mL/min/kg | –
11 | N[C@@H]1CCCN(c2c(/C=C3\SC(=O)NC3=O)cccc2-c2ccccc2)C1 | 28.9 | 9.01 mL/min/kg | 25.9 mL/min/kg | –
12 | Cc1noc(C2CCN(C(=O)C3(c4cccc(F)c4)CCC3)CC2)n1 | 0.861 | 54.1 mL/min/kg | 2450 mL/min/kg | 76.3 µg/mL (≈ 222 µM)
13 | Cc1cc(Nc2ccc(F)cn2)cc(C2CCN(C(=O)COc3ccccc3F)C2)n1 (stereo unspecified) | 9.5 | 115 mL/min/kg | 507 mL/min/kg | 55.6 µg/mL (≈ 131 µM)
14 | Cc1ccc(C(=O)Nc2ccccc2C(C)(C)C)cn1 | 0.696 | ≤ 4.74 mL/min/kg | 30.4 mL/min/kg | 32 µg/mL (≈ 119 µM)
15 | Cc1cc(CSCc2ccc(C#N)cc2)no1 | – | 76.4 mL/min/kg | 1010 mL/min/kg | –
16 | Cc1nn(C)c(C)c1NC(=O)CN1CCC2(CCCCC2)CC1 | 1.6 | 12.4 mL/min/kg | 497 mL/min/kg | 87.3 µg/mL (≈ 274 µM)
17 | Cc1cccc(N(C)C(=O)COC2CCCC2)n1 | 0.667 | 44.8 mL/min/kg | 200 mL/min/kg | 59.6 µg/mL (≈ 240 µM)
18 | CC(C)(C(=O)NCc1ccccn1)c1ccccc1 | 0.736 | ≤ 4.74 mL/min/kg | 138 mL/min/kg | 77.6 µg/mL (≈ 305 µM)

Continued, values first:

Row | MDR1-MDCK efflux ratio | intrinsic clearance, human liver microsomes | intrinsic clearance, rat liver microsomes | aqueous solubility | Structure (SMILES)
19 | 21.4 | 717 mL/min/kg | 2130 mL/min/kg | 14.4 µg/mL (≈ 35.9 µM) | Cc1ccccc1OCCCNc1cc(Cn2c(C)nc3ccccc32)nc(N)n1
20 | 4.01 | 63.4 mL/min/kg | 21.9 mL/min/kg | 32.5 µg/mL (≈ 125 µM) | CCN1CCC(Nc2ncnc3c2cnn3C)CC1
21 | – | 26.3 mL/min/kg | 99.7 mL/min/kg | 46.6 µg/mL (≈ 160 µM) | CC(C)CCN1CCn2c1nc1c2c(=O)n(C)c(=O)n1C
22 | 1.33 | 175 mL/min/kg | 611 mL/min/kg | 4.75 µg/mL (≈ 15.1 µM) | CSc1ccc(NC(=O)Cn2nc(C3CC3)ccc2=O)cc1
23 | 1.16 | 320 mL/min/kg | 1600 mL/min/kg | 7.8 µg/mL (≈ 23 µM) | N#CCCN(C(=O)c1sccc1C#N)C12CC3CC(CC(C3)C1)C2
24 | 0.609 | 164 mL/min/kg | 185 mL/min/kg | – | N#Cc1ccnc(Nc2ccc(F)cc2)c1
25 | – | – | – | 25.4 µg/mL (≈ 85.6 µM) | CCN(CC)CCCNc1c2c(nc3ccccc13)CCC2
26 | 0.828 | ≤ 4.74 mL/min/kg | ≤ 10.7 mL/min/kg | 37.7 µg/mL (≈ 140 µM) | Cn1cc(NC(=O)c2ccccc2C(F)(F)F)cn1
27 | – | ≤ 4.74 mL/min/kg | 73.1 mL/min/kg | – | O=C(Nc1cnn(-c2ncccn2)c1)C1CCCCC1
28 | 0.67 | ≤ 4.74 mL/min/kg | ≤ 10.7 mL/min/kg | 40.6 µg/mL (≈ 177 µM) | Cc1ccc(CNC(=O)c2cccnc2)n1C
29 | 0.592 | ≤ 4.74 mL/min/kg | 11.7 mL/min/kg | 65.2 µg/mL (≈ 257 µM) | O=C(NC1CC1)c1cccnc1Oc1ccccc1
30 | – | 60 mL/min/kg | 1840 mL/min/kg | – | O=C(CNC(=O)c1ccccc1Cl)Nc1cccc2c1CCCC2
31 | 1.23 | 24.8 mL/min/kg | 146 mL/min/kg | 35.1 µg/mL (≈ 124 µM) | O=C(CCNc1ncccn1)N1CCc2ccccc2C1
32 | – | 180 mL/min/kg | 727 mL/min/kg | 33.5 µg/mL (≈ 102 µM) | Cc1cccc2cc(C(=O)NCCSc3nccn3C)n(C)c12
33 | 2.71 | ≤ 4.74 mL/min/kg | ≤ 10.7 mL/min/kg | 61.2 µg/mL (≈ 228 µM) | O=C(c1ccncc1)N1CCC(c2cnccn2)CC1
34 | 1.08 | 13.9 mL/min/kg | 52.4 mL/min/kg | – | O=C(/C=C\n1cnc(-c2cc(C(F)(F)F)cc(C(F)(F)F)c2)n1)NNc1ccccn1
35 | 18.7 | – | – | 0.8 µg/mL (≈ 1.91 µM) | O=C(Cn1cccc(C(=O)Nc2cccc(-n3cccn3)c2)c1=O)NC1CCCCC1
36 | – | – | – | 0.33 µg/mL (≈ 1.06 µM) | Cc1ccc(/C(N)=N/OC(=O)c2ccc3c(c2)OCCO3)cc1
37 | 0.856 | 133 mL/min/kg | 2050 mL/min/kg | – | CC1=C(Br)CN(CCc2nc3ccccc3c(=O)[nH]2)CC1
38 | – | ≤ 4.74 mL/min/kg | 67.5 mL/min/kg | – | Cc1cc2c(=O)n3c(nc2s1)CCNCC3
39 | – | 39.6 mL/min/kg | 399 mL/min/kg | – | Cc1cccnc1CNC(=O)c1ccc(Cl)s1
40 | 0.876 | ≤ 4.74 mL/min/kg | 45.3 mL/min/kg | 38.1 µg/mL (≈ 154 µM) | Cc1csc(NC(=O)CCc2ccncc2)n1
41 | 1.48 | 370 mL/min/kg | 944 mL/min/kg | 44.4 µg/mL (≈ 86 µM) | Cc1cc(=O)n(C)c2cc(N3C(=O)CC[C@H](NS(=O)(=O)CC(C)C)[C@H]3c3ccc(Cl)cc3)ccc12
42 | 4.89 | 140 mL/min/kg | 1910 mL/min/kg | – | Cc1cc(C)c2[nH]c(C(=O)N3CC[C@@](O)(CC(C)C)[C@@H](Oc4ccc(F)cc4)C3)c(C)c2c1
